Marks after values point to notes of the source that are not given here.
Legend:
[1] = system: NF-κB transcriptional activity; assay: NF-κB luciferase reporter assay in HeLa cells; format: cell-based; details: Homo sapiens, NF-κB luciferase reporter, 24 h treatment, hypoxic conditions, mean, n = 3
Method: A NF-κB-Luc plasmid for NF-κB luciferase reporter assay was obtained from Strategene (La Jolla, CA, USA). Transfections were performed as previously described. NF-κB-dependent luciferase activity was measured using the Dual-luciferase reporter assay system. Briefly, HeLa cells (1 × 10^5 cells/well) were seeded in a 96-well plate for 24 h. The cells were then transfected with plasmids for each well and then incubated for a transfection period of 24 h. […] Luciferase activity was determined in MicroLumat plus luminometer (EG&G Berthold, Bad Wildbad, Germany) by injecting 100 µL of assay buffer containing luciferin and measuring light emission for 10 s. Co-transfection with pRL-CMV (Promega, Madison, WI, USA), which expresses Renilla luciferase, was performed to enable normalization of data for transfection efficiency.

[2] = MTT cytotoxicity / cell viability assay; format: cell-based; details: human; MTT assay, HeLa cells, 24 h treatment, normoxic conditions; mean, n = 3
Method: HeLa cells were inoculated and cultured in 96-well plates. After the cells adhered to the wall, the prepared target compounds with different concentrations were added to all plates for 24 h and then cultured in 5 mg/mL MTT solution for 4 h. The culture solution in the holes was sucked out, and DMSO reagent was added. After the crystallization was fully dissolved, the absorbance at 570 nm was measured by Multiskan GO.

xylene-induced ear edema [3] = assay: Xylene-induced ear edema test, initial screening (i.p.); format: in vivo; details: mice; for inhibition in vivo at 100 mg/kg: Mus musculus, ip, 0.5 h, n = 6, read-out: Inhibition Rate; for Edema Mean ± SD: 100 mg/kg, n = 6
Method: In vivo inhibition test of xylene induced ear edema in mice was performed to evaluate its anti-inflammatory activity.
In the initial screening, mice (male) were randomly divided into experimental group, positive control drug ibuprofen and Mesalazine group, and blank group. All target compounds were dissolved in dimethyl sulfoxide, and corresponding drugs were intraperitoneally injected into experimental group, positive control group and blank group, respectively. Mice were treated with 100 mg/kg, 0.1 mL/20 g body weight, and control mice received only DMSO (0.1 mL/20 g body weight). After 30 min, 20 μL of xy-lene was evenly applied on both sides of the right ear of the mice. After 30 min of xy-lene was applied, the mice were sacrificed by cutting off their necks. Then the left and right ears of the mice were drilled with a hole punch with a diameter of 7 mm, respec-tively, to obtain two round ear pieces. The degree of swelling (right ear mass–left ear mass) was calculated for each sample, and the swelling inhibition rate of each drug was calculated using the following formula. The inhibition rate of swelling degree (%) = (mean ear swelling degree of mice in blank group […] mean ear swelling degree of mice in target compound group)/mean ear swelling degree of mice in blank group × 100%. The data were processed by GraphPadPrism 5 and expressed as mean data ± SEM. One-way ANOVA method was used for statistical analysis of relevant data. A value of p < 0.05 in the chart indicates significant and statistically significant data dif-ference.

xylene-induced ear edema [4] = assay: Xylene-induced ear edema test, deep screening (oral); format: in vivo; details: mice
Method: In the deep screening, mice were divided into target compound group, positive control group (ibuprofen), and blank group (8 male mice in each group). Target com-pound and ibuprofen were dissolved in sodium carboxymethyl cellulose aqueous solu-tion (sodium carboxymethyl cellulose to water, mass ratio 1:1000); the blank group was sodium carboxymethyl cellulose aqueous solution (sodium carboxymethyl cellu-lose to water, mass ratio 1:1000). The anti-inflammatory activities of each compound in the target compound group, positive control group, and blank group were measured at 1, 2, 3, 4, 6, 9, 12 and 24 h after taking the drug. The experimental operation and calculation method are the same as the initial screening part.

Row | Compound | IC50 [1] [µM] | melting point [°C] | IC50 at 24 h [2] [µM] | inhibition in vivo at 100 mg/kg (xylene-induced ear edema [3]) [%] | Edema Mean ± SD (xylene-induced ear edema [3]) [mg] | other results
1 | CC(C)Cc1ccc(C(C)C(=O)O)cc1 (centres unmarked) [ibuprofen, reference compound] |  |  |  | 49.8 | 3.3167 ± 0.5550 | Inhibition (xylene-induced ear edema [4]; 100 mg/kg, time 1 h): 22.98% ***; Inhibition (xylene-induced ear edema [4]; 100 mg/kg, time 2 h): 33.33% ***; Inhibition (xylene-induced ear edema [4]; 100 mg/kg, time 3 h): 44.95% ***; Inhibition (xylene-induced ear edema [4]; 100 mg/kg, time 4 h): 47.47%; Inhibition (xylene-induced ear edema [4]; 100 mg/kg, time 4 h, listed as Ibuprfen): 47.47% ***; Inhibition (xylene-induced ear edema [4]; 100 mg/kg, time 6 h (Table 5)): 44.44% ***; Inhibition (xylene-induced ear edema [4]; 100 mg/kg, time 9 h): 34.60% ***; Inhibition (xylene-induced ear edema [4]; 100 mg/kg, time 12 h): 19.95% **; Inhibition (xylene-induced ear edema [4]; 100 mg/kg, time 24 h): 14.65% *; Inhibition (xylene-induced ear edema [4]; dose series, 25 mg/kg, 6 h): 28.95% *; Inhibition (xylene-induced ear edema [4]; dose series, 50 mg/kg, 6 h): 32.68% **; Inhibition (xylene-induced ear edema [4]; dose series, 100 mg/kg, 6 h (Table 6)): 43.32% ***
2 | Nc1ccc(O)c(C(=O)O)c1 [mesalazine, reference compound] |  |  |  | 51.3 | 3.2167 ± 1.1067 | 
3 | COC(=O)c1c2c(c3ccccc3c1OCC(=O)Nc1ccccc1)OC(C)(C)C=C2 [Compound 4a, Methyl 2,2-dimethyl-6-(2-oxo-2-(phenylamino)ethoxy)-2H-benzo [h] chromene-5-carboxyate] | > 100 | 118 to 120 | > 100 | 38.6 | 4.0500 ± 0.6188 | 
4 | COC(=O)c1c2c(c3ccccc3c1OCC(=O)NC1CCN(Cc3ccccc3)CC1)OC(C)(C)C=C2 [Compound 6a, Methyl 6-(2-((1-benzylpiperidin-4-yl)amino)-2-oxoethoxy)-2,2-dimethyl-2H-benzo [h] chromene-5-carboxylate] | 49.3 | 115 to 117 | > 100 | 56.6 | 2.8667 ± 1.2645 | 
5 | COC(=O)c1c2c(c3ccccc3c1OCC(=O)Nc1ccc(Cl)cc1)OC(C)(C)C=C2 [Compound 4b, Methyl 6-(2-((4-chlorophenyl)amino)-2-oxoethoxy)-2,2-dimethyl-2H-benzo [h] chromene-5-carboxylate] | > 100 | 122 to 124 | > 100 | 55.8 | 2.9167 ± 0.8029 | 
6 | COC(=O)c1c2c(c3ccccc3c1OCC(=O)Nc1ccccc1C)OC(C)(C)C=C2 [Compound 4g, Methyl 2,2-dimethyl-6-(2-oxo-2-(o-tolylamino)ethoxy)-2H-Benzo [h] chromene-5-carboxylate] | > 100 | 122 to 124 | > 100 | 42.4 | 3.8000 ± 0.5066 | 
7 | COC(=O)c1c2c(c3ccccc3c1OCC(=O)Nc1ccc(Br)cc1)OC(C)(C)C=C2 [Compound 4c, Methyl 6-(2-((4-bromophenyl)amino)-2-oxoethoxy)-2,2-dimethyl-2H-Benzo [h] chromene-5-carboxylate] | > 100 | 125 to 127 | > 100 | 49.2 | 3.3500 ± 1.0579 | 

Second part, led by results:

Row | IC50 [1] [µM] | melting point [°C] | Compound | IC50 at 24 h [2] [µM] | inhibition in vivo at 100 mg/kg (xylene-induced ear edema [3]) [%] | Edema Mean ± SD (xylene-induced ear edema [3]) [mg] | other results
8 | > 100 | 110 to 112 | COC(=O)c1c2c(c3ccccc3c1OCCBr)OC(C)(C)C=C2 [Compound 8a, Methyl 6-(2-bromoethoxy)-2,2-dimethyl-2H-benzo [h] chromene-5-carboxylate] | > 100 | 57.3 | 2.8167 ± 0.9370 | 
9 | > 100 | 135 to 137 | COC(=O)c1c2c(c3ccccc3c1OCCNc1ccccc1)OC(C)(C)C=C2 [Compound 8b, Methyl 2,2-dimethyl-6-(2-(phenylamino)ethoxy)-2H-benzo[h]chromene-5-carboxylate] | > 100 | 76.5 | 1.5500 ± 0.3594 | 
10 | 4.93 | 121 to 123 | COC(=O)c1c2c(c3ccccc3c1OCC(=O)Nc1cnccn1)OC(C)(C)C=C2 [Compound 6h, Methyl 2,2-dimethyl-6-(2-oxo-2-(pyrazin-2-ylamino)ethoxy)-2H-benzo [h] chromene-5-carboxylate] | > 100 | 72.7 | 1.8000 ± 0.6880 | 
11 | 41.9 | 123 to 125 | COC(=O)c1c2c(c3ccccc3c1OCC(=O)Nc1ccncc1C)OC(C)(C)C=C2 [Compound 6b, Methyl 2,2-dimethyl-6-(2-((3-methylpyridin-4-yl)amino)-2-oxoethoxy)-2H-benzo [h] chromene-5-carboxylate] | > 100 | 63.1 | 2.4333 ± 0.1795 | 
12 | > 100 | 134 to 136 | COC(=O)c1c2c(c3ccccc3c1OCC(=O)NC1CC1)OC(C)(C)C=C2 [Compound 6f, Methyl 6-(2-(cyclopropylamino)-2-oxoethoxy)-2,2-dimethyl-2H-benzo [h] chromene-5-carboxylate] | > 100 | 57.3 | 2.8167 ± 0.6962 | 
13 | > 100 | 126 to 128 | COC(=O)c1c2c(c3ccccc3c1OCC(=O)Nc1ccncc1)OC(C)(C)C=C2 [Compound 6e, Methyl 2,2-dimethyl-6-(2-oxo-2-(pyridin-4-ylamino)ethoxy)-2H-benzo [h] chromene-5-carboxylate] | > 100 | 65.9 | 2.2500 ± 0.3403 | 
14 | > 100 | 119 to 121 | COC(=O)c1c2c(c3ccccc3c1OCC(=O)Nc1ccc(C)nc1)OC(C)(C)C=C2 [Compound 6i, Methyl 2,2-dimethyl-6-(2-((6-methylpyridin-3-yl)amino)-2-oxoethoxy)-2H-benzo [h] chromene-5-carboxylate] | > 100 | 42.9 | 3.7667 ± 1.1571 | 
15 | > 100 | 127 to 129 | COC(=O)c1c2c(c3ccccc3c1OCC(=O)NC(c1ccccc1)c1ccccc1)OC(C)(C)C=C2 [Compound 6g, Methyl 6-(2-(benzhydrylamino)-2-oxoethoxy)-2,2-Dimethyl-2H-benzo [h] chromene-5-carboxylate] | > 100 | 58.6 | 2.7333 ± 0.4819 | 
16 | 18.6 | 113 to 115 | COC(=O)c1c2c(c3ccccc3c1OCC(=O)Nc1cccc3cccnc13)OC(C)(C)C=C2 [Compound 6j, Methyl 2,2-dimethyl-6-(2-oxo-2-(quinolin-8-ylamino)ethoxy)-2H-benzo [h] chromene-5-carboxylate] | > 100 | 75.2 | 1.6333 ± 0.4384 | 
17 | > 100 |  | COC(=O)c1c2c(c3ccccc3c1O)OC(C)(C)C=C2 [Mollugin] | > 100 | 54 | 3.0333 ± 0.9655 | 
18 | > 100 | 128 to 130 | COC(=O)c1c2c(c3ccccc3c1OCCNc1ccc(F)cc1)OC(C)(C)C=C2 [Compound 8c, Methyl6-(2-((4-fluorophenyl)amino)ethoxy)-2,2-dimethyl-2H-benzo [h] chromene-5-carboxylate] | > 100 | 63.9 | 2.3833 ± 0.7104 | 

From publication PMC9695821, “Synthesis and Evaluation of NF-κB Inhibitory Activity of Mollugin Derivatives” (Molecules, 2022)
